Laboratory results from patent publication US10328104B2, “Methods for treating nuclear factor kappa-light-chain-enhancer of activated B cell (NF-κB) dysregulation in a host in need thereof using eggshell membrane compositions” (ESM TECHNOLOGIES, LLC, priority 2015, dated 2019).

Assays:
[1] = tested on: human suffering from cardiovascular disease (hypertension); experiment: Resting blood pressure in a human suffering from cardiovascular disease taking NEM orally, case report; assay type: in vivo; details: first subject; atenolol 100 mg/day, before NEM
Method: (§1) The following examples are illustrative of the efficacy of an orally administered eggshell membrane product (trade name NEM®) in treating a human suffering from cardiovascular disease. […] The subject was treating their hypertension with 100 mg/day of atenolol. […] The subject had also had four cardiac stents placed to treat atherosclerotic stenosis (narrowing) of various cardiac blood vessels. The subject consumed one 500 mg capsule per day of NEM® as prepared in Example 5 for about 12 months before noticing an effect on lipid panel results. The subject continued the NEM® regimen for an additional approximately 12 months (about 2 years total). Follow-up lipid panel results were: TC=138 mg/dL, LDL=80 mg/dL, HDL=41 mg/dL, and TG=84 mg/dL. […] The subject also found it necessary to reduce the atenolol dose from 100 mg/day to 25 mg/day.

[2] = tested on: human suffering from cardiovascular disease (hyperlipidemia, hypertriglyceridemia); experiment: Lipid panel in humans suffering from cardiovascular disease taking NEM orally, case reports; assay type: in vivo; details: second subject; treated with 10 mg/day atorvastatin, before NEM
Method: as §1
A second human with a recent history of cardiovascular disease (hyperlipidemia & hypertriglyceridemia only) was being treated with 10 mg/day of atorvastatin. Treated lipid panel results for this subject were: TC=207 mg/dL, LDL=114 mg/dL, HDL=47 mg/dL, and TG=247 mg/dL. […] The subject consumed one 500 mg capsule per day of NEM® as prepared in Example 5 for about 2 years. Follow-up lipid panel results were: TC=150 mg/dL, LDL=81 mg/dL, HDL=46 mg/dL, and TG=113 mg/dL.

## CC(C)NCC(O)COc1ccc(CC(N)=O)cc1 (stereo not drawn) [atenolol]
[1]
  resting diastolic blood pressure: 84 mm Hg
  resting systolic blood pressure: 146 mm Hg

## CC(C)c1c(C(=O)Nc2ccccc2)c(-c2ccccc2)c(-c2ccc(F)cc2)n1CC[C@@H](O)C[C@@H](O)CC(=O)O [atorvastatin]
[2]
  HDL: 47 mg/dL
  LDL: 114 mg/dL
  TG: 247 mg/dL
  Total cholesterol (TC): 207 mg/dL
